Molecular target: Beta-secretase 1 (Homo sapiens, UniProt P56817)
Assay: Inhibition of BACE1 after 60 mins by FRET assay

Chain of Beta-secretase 1 (P56817 whole entry): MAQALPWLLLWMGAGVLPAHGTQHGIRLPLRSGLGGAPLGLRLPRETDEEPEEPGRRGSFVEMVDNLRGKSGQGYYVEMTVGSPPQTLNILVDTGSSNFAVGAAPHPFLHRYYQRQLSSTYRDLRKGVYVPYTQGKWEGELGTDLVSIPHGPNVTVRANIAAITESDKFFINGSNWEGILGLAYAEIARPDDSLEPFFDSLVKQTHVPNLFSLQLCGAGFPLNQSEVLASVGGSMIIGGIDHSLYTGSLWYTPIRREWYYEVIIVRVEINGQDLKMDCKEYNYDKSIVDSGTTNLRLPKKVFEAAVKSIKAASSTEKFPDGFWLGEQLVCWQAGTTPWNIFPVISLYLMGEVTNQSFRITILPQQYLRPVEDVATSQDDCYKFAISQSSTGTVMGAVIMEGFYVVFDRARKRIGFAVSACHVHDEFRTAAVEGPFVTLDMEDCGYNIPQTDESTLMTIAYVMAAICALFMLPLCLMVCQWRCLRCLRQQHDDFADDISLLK

Row | Structure (SMILES) | IC50
1 | COc1cc(O)c2c(=O)cc(-c3ccc(OC)c(-c4c(O)cc(O)c5c(=O)cc(-c6ccc(O)cc6)oc45)c3)oc2c1 [GINKGETIN] | 4.18 µM
2 | O=c1cc(-c2ccc(Oc3c(O)cc4oc(-c5ccc(O)cc5)cc(=O)c4c3O)cc2)oc2cc(O)cc(O)c12 [HINOKIFLAVONE] | > 10 µM
3 | COc1ccc(-c2cc(=O)c3c(O)cc(O)c(-c4cc(-c5cc(=O)c6c(O)cc(OC)cc6o5)ccc4OC)c3o2)cc1 [SCIADOPITISIN] | > 10 µM
4 | COc1cc(O)c2c(=O)cc(-c3ccc(O)cc3)oc2c1-c1cc(-c2cc(=O)c3c(O)cc(O)cc3o2)ccc1O [SOTETSUFLAVONE] | 1.58 µM
5 | COc1ccc(-c2cc(=O)c3c(O)cc(OC)c(-c4cc(-c5cc(=O)c6c(O)cc(OC)cc6o5)ccc4O)c3o2)cc1 [HEVEAFLAVONE] | > 10 µM
6 | COc1ccc([C@@H]2CC(=O)c3c(cc(OC)c(C)c3O)O2)cc1-c1c(O)cc(O)c2c(=O)cc(-c3ccc(O)cc3)oc12 | 0.35 µM
7 | COc1cc(O)c2c(=O)cc(-c3ccc(OC)c(-c4c(OC)cc(O)c5c(=O)cc(-c6ccc(O)cc6)oc45)c3)oc2c1 | > 10 µM
8 | O=c1cc(-c2ccc(O)c(-c3c(O)cc(O)c4c(=O)cc(-c5ccc(O)cc5)oc34)c2)oc2cc(O)cc(O)c12 [AMENTOFLAVONE] | 1.54 µM
9 | O=c1cc(-c2ccc(O)cc2)oc2c(-c3c(O)cc(O)c4c(=O)cc(-c5ccc(O)cc5)oc34)c(O)cc(O)c12 [CUPRESSUFLAVONE] | > 10 µM
10 | COc1ccc(-c2cc(=O)c3c(O)cc(O)cc3o2)cc1-c1c(OC)cc(O)c2c(=O)cc(-c3ccc(O)cc3)oc12 | > 10 µM
11 | COc1ccc(-c2cc(=O)c3c(O)cc(OC)c(-c4cc(-c5cc(=O)c6c(O)cc(OC)cc6o5)ccc4OC)c3o2)cc1 | > 10 µM
12 | COc1ccc(-c2cc(=O)c3c(O)cc(OC)c(-c4cc(-c5cc(=O)c6c(O)cc(O)cc6o5)ccc4O)c3o2)cc1 [7'',4'''-dimethylamentoflavone] | > 10 µM
13 | COc1ccc(-c2cc(=O)c3c(O)cc(OC)c(-c4cc(-c5cc(=O)c6c(O)cc(O)cc6o5)ccc4OC)c3o2)cc1 [KAYAFLAVONE] | > 10 µM
14 | COc1ccc(-c2cc(=O)c3c(O)cc(O)c(-c4cc(-c5cc(=O)c6c(O)cc(O)cc6o5)ccc4OC)c3o2)cc1 [ISOGINKGETIN] | 3.01 µM
15 | COc1ccc(-c2cc(=O)c3c(O)cc(O)c(-c4cc(-c5cc(=O)c6c(O)cc(OC)cc6o5)ccc4O)c3o2)cc1 [PODOCARPUSFLAVONE B] | 4.21 µM
16 | O=c1cc(-c2ccc(O)c(-c3c(O)cc4oc(-c5ccc(O)cc5)cc(=O)c4c3O)c2)oc2cc(O)cc(O)c12 [ROBUSTAFLAVONE] | > 10 µM
17 | COc1ccc(-c2cc(=O)c3c(O)cc(O)cc3o2)cc1-c1c(O)cc(O)c2c(=O)cc(-c3ccc(O)cc3)oc12 [BILOBETIN] | 2.02 µM
18 | COc1cc(O)c2c(=O)cc(-c3ccc(O)c(-c4c(OC)cc(O)c5c(=O)cc(-c6ccc(O)cc6)oc45)c3)oc2c1 | 6.25 µM
19 | COc1ccc(-c2cc(=O)c3c(O)cc(O)c(-c4cc(-c5cc(=O)c6c(O)cc(O)cc6o5)ccc4O)c3o2)cc1 [PODOCARPUSFLAVONE A] | 0.99 µM
20 | COc1cc(O)c2c(=O)cc(-c3ccc(O)c(-c4c(O)cc(O)c5c(=O)cc(-c6ccc(O)cc6)oc45)c3)oc2c1 [SEQUOIAFLAVONE] | 1.4 µM
